{
  "source": "ChEMBL document CHEMBL4382204",
  "about": "(Eur J Med Chem, 2018)",
  "key": {"K562 [1]": {"system": "K562", "test": "Cell cycle arrest in human K562 cells assessed as accumulation at G0/G1 phase up to 0.3 uM after 24 hrs by propidium iodide/RNase staining based flow cytometric analysis", "type": "functional"}, "[2]": {"test": "Oral bioavailability in Sprague-Dawley rat at 10 mg/kg by LC-MS/MS analysis", "type": "ADME, organism-based", "details": "in vivo"}, "[3]": {"test": "AUC (0 to infinity) in Sprague-Dawley rat at 10 mg/kg, po by LC-MS/MS analysis", "type": "ADME, organism-based", "design": "dose 10 mg/kg, time infinity, route oral", "details": "in vivo"}, "[4]": {"system": "Bcr/Abl fusion protein (Homo sapiens), P00519+P11274 [M351T]", "details": "BaF3"}, "[5]": {"biological_target": "T1, Bcr/Abl fusion protein (Homo sapiens) (UniProt P00519+P11274)", "test": "Inhibition of BCR/ABL in human MEG01 cells assessed as inhibition of CrkL phosphorylation up to 0.3 uM after 1 hr by immunoblotting analysis", "type": "cell-based"}, "[6]": {"biological_target": "Macrophage colony-stimulating factor 1 receptor (Homo sapiens) (UniProt P07333)", "sequence (P07333 whole entry, the tested form may be a part)": "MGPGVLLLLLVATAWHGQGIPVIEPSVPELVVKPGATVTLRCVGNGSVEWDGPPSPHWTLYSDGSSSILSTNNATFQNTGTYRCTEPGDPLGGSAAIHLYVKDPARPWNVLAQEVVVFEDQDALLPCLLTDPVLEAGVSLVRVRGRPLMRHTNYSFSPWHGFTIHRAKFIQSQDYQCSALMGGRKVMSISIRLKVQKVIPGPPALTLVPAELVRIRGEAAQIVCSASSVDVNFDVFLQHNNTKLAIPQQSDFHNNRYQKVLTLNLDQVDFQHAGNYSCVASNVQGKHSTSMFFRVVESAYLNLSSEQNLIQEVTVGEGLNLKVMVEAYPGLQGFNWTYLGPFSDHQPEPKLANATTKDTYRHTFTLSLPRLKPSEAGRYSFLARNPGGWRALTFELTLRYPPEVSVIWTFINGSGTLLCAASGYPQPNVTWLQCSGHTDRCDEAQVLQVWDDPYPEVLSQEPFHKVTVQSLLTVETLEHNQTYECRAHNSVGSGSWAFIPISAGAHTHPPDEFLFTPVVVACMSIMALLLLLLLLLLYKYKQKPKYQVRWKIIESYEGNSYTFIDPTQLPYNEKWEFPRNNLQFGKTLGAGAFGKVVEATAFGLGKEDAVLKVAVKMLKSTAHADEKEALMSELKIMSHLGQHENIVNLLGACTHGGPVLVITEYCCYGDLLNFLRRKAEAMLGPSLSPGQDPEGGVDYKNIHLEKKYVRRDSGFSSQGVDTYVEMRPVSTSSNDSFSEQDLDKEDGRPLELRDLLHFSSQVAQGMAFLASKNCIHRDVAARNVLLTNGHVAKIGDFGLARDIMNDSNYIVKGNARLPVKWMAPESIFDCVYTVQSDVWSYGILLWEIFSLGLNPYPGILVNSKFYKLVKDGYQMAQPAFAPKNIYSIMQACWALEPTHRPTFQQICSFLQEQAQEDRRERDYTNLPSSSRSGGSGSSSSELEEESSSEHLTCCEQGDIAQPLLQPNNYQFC", "test": "Inhibition of wild type C-terminal FLAG-tagged human TEL fused CSF1R (unknown origin) transfected in mouse BAF3 cells assessed as growth inhibition after 72 hrs by CCK8 assay", "type": "cell-based"}, "[7]": {"biological_target": "T1, Bcr/Abl fusion protein (Homo sapiens)", "details": "BaF3", "description": "Inhibition of wild type BCR/ABL (unknown origin) transfected in mouse BAF3 cells assessed as growth inhibition after 72 hrs by CCK8 assay"}, "KU812 cell line [8]": {"system": "KU812 cell line", "test": "Induction of apoptosis in human KU812 cells assessed as cleaved caspase-3 level up to 0.3 uM after 24 hrs by immunoblotting analysis", "type": "functional, cell-based"}, "[9]": {"system": "Bcr/Abl fusion protein (Homo sapiens), P00519+P11274 [F317I]", "details": "BaF3"}, "[10]": {"biological_target": "Mast/stem cell growth factor receptor Kit (Homo sapiens) (UniProt P10721)", "sequence (P10721 whole entry, the tested form may be a part)": "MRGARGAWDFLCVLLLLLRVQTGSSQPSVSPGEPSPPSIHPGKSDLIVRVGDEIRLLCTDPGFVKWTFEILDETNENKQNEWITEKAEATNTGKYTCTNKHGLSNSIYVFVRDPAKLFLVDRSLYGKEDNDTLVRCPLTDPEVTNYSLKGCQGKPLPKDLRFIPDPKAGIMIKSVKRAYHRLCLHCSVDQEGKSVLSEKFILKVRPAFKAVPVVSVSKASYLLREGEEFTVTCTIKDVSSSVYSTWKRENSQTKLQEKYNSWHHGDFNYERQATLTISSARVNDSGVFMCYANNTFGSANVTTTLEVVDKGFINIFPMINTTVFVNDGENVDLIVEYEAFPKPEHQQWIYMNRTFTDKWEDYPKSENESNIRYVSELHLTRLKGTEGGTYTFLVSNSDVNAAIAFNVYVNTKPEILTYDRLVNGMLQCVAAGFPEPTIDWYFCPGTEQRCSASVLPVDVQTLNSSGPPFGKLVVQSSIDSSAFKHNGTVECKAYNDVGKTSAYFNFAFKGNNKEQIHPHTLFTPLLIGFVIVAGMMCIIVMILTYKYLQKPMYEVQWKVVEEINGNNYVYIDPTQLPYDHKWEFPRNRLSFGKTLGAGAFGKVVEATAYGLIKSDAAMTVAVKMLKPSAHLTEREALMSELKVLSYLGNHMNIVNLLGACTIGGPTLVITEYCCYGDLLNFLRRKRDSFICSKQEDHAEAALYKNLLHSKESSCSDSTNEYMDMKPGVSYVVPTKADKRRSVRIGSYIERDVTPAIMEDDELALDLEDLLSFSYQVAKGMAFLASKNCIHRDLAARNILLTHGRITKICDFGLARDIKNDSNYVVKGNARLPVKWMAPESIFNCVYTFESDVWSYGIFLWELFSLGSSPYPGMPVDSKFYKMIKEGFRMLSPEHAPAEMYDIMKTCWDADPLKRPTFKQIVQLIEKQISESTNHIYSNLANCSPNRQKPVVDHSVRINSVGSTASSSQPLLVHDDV", "test": "Inhibition of wild type C-terminal FLAG-tagged human TEL fused cKIT (unknown origin) transfected in mouse BAF3 cells assessed as growth inhibition after 72 hrs by CCK8 assay", "type": "cell-based"}, "K562 [11]": {"system": "K562", "test": "Induction of apoptosis in human K562 cells assessed as cleaved caspase-3 level up to 0.3 uM after 24 hrs by immunoblotting analysis", "type": "functional, cell-based"}, "[12]": {"test": "MRT (0 to t) in Sprague-Dawley rat at 1 mg/kg, iv by LC-MS/MS analysis", "type": "ADME, organism-based", "details": "in vivo"}, "Bcr/Abl fusion protein [13]": {"biological_target": "T2, Bcr/Abl fusion protein (Homo sapiens, UniProt P00519, T315I)", "test": "Inhibition of BCR/ABL T315I mutant (unknown origin) expressed in mouse BAF3 cells assessed as inhibition of STAT5 phosphorylation after 1 hr by immunoblotting analysis", "type": "cell-based"}, "[14]": {"test": "AUC (0 to t) in Sprague-Dawley rat at 10 mg/kg, po by LC-MS/MS analysis", "type": "ADME, organism-based", "details": "in vivo"}, "[15]": {"biological_target": "Tyrosine-protein kinase ABL1 (Homo sapiens, UniProt P00519, T315I)", "test": "Inhibition of inactive wild type His-tagged ABL T315I mutant (229 to 500 residues) (unknown origin) expressed in baculovirus infected sf9 cells assessed as reduction in autophosphorylation preincubated for 60 mins followed by ATP addition measured after 8 hrs by ADP-Glo assay"}, "Bcr/Abl fusion protein [16]": {"biological_target": "T2, Bcr/Abl fusion protein", "test": "Inhibition of BCR/ABL T315I mutant (unknown origin) expressed in mouse BAF3 cells assessed as inhibition of CrkL phosphorylation after 1 hr by immunoblotting analysis", "type": "cell-based"}, "[17]": {"test": "Cmax in Sprague-Dawley rat at 10 mg/kg, po by LC-MS/MS analysis", "type": "ADME, organism-based", "design": "dose 10 mg/kg, route oral", "details": "in vivo"}, "[18]": {"test": "Oral bioavailability in mouse at 10 mg/kg by LC-MS/MS analysis", "type": "ADME, organism-based", "details": "in vivo"}, "[19]": {"system": "Bcr/Abl fusion protein (Homo sapiens), P00519+P11274 [Q252H]", "details": "BaF3"}, "[20]": {"test": "Apparent volume of distribution during terminal phase in mouse at 10 mg/kg, po by LC-MS/MS analysis", "type": "ADME, organism-based", "details": "in vivo"}, "[21]": {"biological_target": "Fibroblast growth factor receptor 2 (Homo sapiens) (UniProt P21802)", "sequence (P21802 22-821 limits assumed)": "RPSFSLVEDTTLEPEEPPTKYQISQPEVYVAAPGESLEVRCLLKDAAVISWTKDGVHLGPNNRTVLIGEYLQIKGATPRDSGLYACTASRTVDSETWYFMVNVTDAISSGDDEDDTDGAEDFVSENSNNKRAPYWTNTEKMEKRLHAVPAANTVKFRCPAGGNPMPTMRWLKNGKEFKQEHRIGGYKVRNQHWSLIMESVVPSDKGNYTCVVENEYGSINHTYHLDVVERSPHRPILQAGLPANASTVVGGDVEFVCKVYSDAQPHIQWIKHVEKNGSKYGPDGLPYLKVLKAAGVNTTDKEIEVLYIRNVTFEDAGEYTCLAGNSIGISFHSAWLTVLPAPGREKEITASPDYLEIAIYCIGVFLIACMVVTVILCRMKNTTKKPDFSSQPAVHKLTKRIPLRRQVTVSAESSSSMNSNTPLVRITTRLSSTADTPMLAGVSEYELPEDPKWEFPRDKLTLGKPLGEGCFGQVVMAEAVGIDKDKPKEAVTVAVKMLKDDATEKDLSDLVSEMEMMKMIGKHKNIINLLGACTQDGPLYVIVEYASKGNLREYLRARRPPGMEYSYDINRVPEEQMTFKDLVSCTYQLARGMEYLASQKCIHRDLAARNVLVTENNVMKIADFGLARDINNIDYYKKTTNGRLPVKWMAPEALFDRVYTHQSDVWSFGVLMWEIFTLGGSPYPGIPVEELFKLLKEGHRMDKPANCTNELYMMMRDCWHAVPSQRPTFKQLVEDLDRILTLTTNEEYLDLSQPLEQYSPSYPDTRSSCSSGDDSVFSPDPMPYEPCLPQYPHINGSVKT", "test": "Inhibition of wild type C-terminal FLAG-tagged human TEL fused FGFR2 (unknown origin) transfected in mouse BAF3 cells assessed as growth inhibition after 72 hrs by CCK8 assay", "type": "cell-based"}, "[22]": {"biological_target": "Proto-oncogene tyrosine-protein kinase Src (Homo sapiens) (UniProt P12931)", "sequence (P12931 2-536 limits assumed)": "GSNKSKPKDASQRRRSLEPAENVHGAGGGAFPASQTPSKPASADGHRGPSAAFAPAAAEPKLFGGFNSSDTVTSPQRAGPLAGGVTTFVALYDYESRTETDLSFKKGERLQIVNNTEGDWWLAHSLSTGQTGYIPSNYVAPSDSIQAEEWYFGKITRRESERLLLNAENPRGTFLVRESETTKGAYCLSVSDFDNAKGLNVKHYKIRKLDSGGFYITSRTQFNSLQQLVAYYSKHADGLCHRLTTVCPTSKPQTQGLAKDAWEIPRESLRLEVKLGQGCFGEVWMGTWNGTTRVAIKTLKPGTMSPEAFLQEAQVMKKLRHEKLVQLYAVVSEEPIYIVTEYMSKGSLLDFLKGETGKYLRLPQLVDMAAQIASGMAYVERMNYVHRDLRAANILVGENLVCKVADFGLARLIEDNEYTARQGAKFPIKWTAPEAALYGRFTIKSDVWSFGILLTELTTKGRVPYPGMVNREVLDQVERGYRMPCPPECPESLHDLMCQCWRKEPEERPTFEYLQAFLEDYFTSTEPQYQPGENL", "test": "Inhibition of wild type C-terminal FLAG-tagged human TEL fused SRC (unknown origin) transfected in mouse BAF3 cells assessed as growth inhibition after 72 hrs by CCK8 assay", "type": "cell-based"}, "[23]": {"test": "MRT (0 to t) in mouse at 1 mg/kg, iv by LC-MS/MS analysis", "type": "ADME, organism-based", "details": "in vivo"}, "BaF3": {"system": "BaF3", "test": "Antitumor activity against mouse BAF3 cells expressing BCR/ABL T315I mutant allografted in po dosed nu/nu mouse assessed as tumor growth inhibition administered daily via gavage for 13 days", "type": "functional, organism-based"}, "[24]": {"biological_target": "T1, Bcr/Abl fusion protein (Homo sapiens)", "test": "Inhibition of BCR/ABL in human KU812 cells assessed as inhibition of STAT5 phosphorylation up to 0.3 uM after 1 hr by immunoblotting analysis", "type": "cell-based"}, "[25]": {"test": "Apparent clearance during terminal phase in mouse at 1 mg/kg, iv by LC-MS/MS analysis", "type": "ADME, organism-based", "details": "in vivo"}, "[26]": {"test": "Half life in mouse at 1 mg/kg, iv by LC-MS/MS analysis", "type": "ADME, organism-based", "details": "in vivo"}, "MEG-01": {"system": "MEG-01", "test": "Induction of apoptosis in human MEG01 cells assessed as cleaved PARP level up to 0.3 uM after 24 hrs by immunoblotting analysis", "type": "functional, cell-based"}, "[27]": {"test": "Cmax in mouse at 1 mg/kg, iv by LC-MS/MS analysis", "type": "ADME, organism-based", "design": "dose 1 mg/kg, route intravenous", "details": "in vivo"}, "[28]": {"system": "Tyrosine-protein kinase ABL1 (Homo sapiens), P00519 [T315I]", "details": "BaF3"}, "[29]": {"biological_target": "T1, Bcr/Abl fusion protein (Homo sapiens)", "test": "Inhibition of BCR/ABL in human KU812 cells assessed as inhibition of CrkL phosphorylation up to 0.3 uM after 1 hr by immunoblotting analysis", "type": "cell-based"}, "[30]": {"system": "Bcr/Abl fusion protein (Homo sapiens), P00519+P11274 [F317L]", "details": "BaF3"}, "[31]": {"test": "Selectivity ratio of GI50 for mouse BAF3 cells to GI50 for BCR/ABL T315I mutant (unknown origin) transfected in mouse BAF3 cells"}, "[32]": {"test": "AUC (0 to t) in mouse at 1 mg/kg, iv by LC-MS/MS analysis", "type": "ADME, organism-based", "details": "in vivo"}, "KU812 cell line [33]": {"system": "KU812 cell line", "test": "Induction of apoptosis in human KU812 cells assessed as cleaved PARP level up to 0.3 uM after 24 hrs by immunoblotting analysis", "type": "functional, cell-based"}, "[34]": {"biological_target": "T1, Bcr/Abl fusion protein (Homo sapiens)", "test": "Inhibition of BCR/ABL in human KU812 cells assessed as inhibition of ErK phosphorylation up to 0.3 uM after 1 hr by immunoblotting analysis", "type": "cell-based"}, "[35]": {"test": "AUC (0 to t) in Sprague-Dawley rat at 1 mg/kg, iv by LC-MS/MS analysis", "type": "ADME, organism-based", "details": "in vivo"}, "[36]": {"biological_target": "Vascular endothelial growth factor receptor 1 (Homo sapiens) (UniProt P17948)", "sequence (P17948 whole entry, the tested form may be a part)": "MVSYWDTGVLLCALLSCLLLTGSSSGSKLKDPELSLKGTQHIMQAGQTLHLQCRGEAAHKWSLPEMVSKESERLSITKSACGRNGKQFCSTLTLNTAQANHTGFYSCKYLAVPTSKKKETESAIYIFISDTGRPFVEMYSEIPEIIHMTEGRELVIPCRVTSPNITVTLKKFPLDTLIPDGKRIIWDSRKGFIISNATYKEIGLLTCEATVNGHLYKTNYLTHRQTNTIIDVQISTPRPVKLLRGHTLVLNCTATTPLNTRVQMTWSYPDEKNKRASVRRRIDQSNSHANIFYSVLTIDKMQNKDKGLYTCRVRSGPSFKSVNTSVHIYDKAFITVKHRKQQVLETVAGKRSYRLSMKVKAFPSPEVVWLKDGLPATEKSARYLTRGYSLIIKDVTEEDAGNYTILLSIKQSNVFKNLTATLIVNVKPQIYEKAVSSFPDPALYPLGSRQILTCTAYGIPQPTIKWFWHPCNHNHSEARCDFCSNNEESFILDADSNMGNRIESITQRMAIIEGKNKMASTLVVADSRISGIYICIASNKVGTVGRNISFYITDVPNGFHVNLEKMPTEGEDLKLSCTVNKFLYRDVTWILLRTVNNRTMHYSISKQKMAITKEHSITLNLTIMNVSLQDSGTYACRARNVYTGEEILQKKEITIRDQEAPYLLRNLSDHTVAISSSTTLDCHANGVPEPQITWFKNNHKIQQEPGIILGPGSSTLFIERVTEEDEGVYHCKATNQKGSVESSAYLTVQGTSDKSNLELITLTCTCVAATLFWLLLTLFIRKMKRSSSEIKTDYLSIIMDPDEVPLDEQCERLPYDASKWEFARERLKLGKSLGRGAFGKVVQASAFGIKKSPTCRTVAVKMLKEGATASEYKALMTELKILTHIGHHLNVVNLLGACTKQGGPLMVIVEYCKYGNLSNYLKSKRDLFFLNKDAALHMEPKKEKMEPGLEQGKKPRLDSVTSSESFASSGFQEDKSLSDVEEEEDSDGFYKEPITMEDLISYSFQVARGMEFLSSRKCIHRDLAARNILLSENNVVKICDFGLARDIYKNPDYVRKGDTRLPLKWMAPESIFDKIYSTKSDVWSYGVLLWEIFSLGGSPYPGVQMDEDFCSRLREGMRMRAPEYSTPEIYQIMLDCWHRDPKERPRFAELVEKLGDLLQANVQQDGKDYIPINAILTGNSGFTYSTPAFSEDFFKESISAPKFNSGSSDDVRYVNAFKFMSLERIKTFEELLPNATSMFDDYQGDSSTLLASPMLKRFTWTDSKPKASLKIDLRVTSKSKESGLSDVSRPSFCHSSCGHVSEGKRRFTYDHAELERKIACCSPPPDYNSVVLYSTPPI", "test": "Inhibition of wild type C-terminal FLAG-tagged human TEL fused FLT1 (unknown origin) transfected in mouse BAF3 cells assessed as growth inhibition after 72 hrs by CCK8 assay", "type": "cell-based"}},
  "note": "Activity calls are given as the source filed them. The rule behind the calls is not given here.",
  "data": [
    {"smiles": "CN1CCN(Cc2ccc(NC(=O)CCSc3ccc4c(/C=C/c5ccccn5)n[nH]c4c3)cc2C(F)(F)F)CC1", "values": [
      {"measurement": "Activity", "setting": "K562 [1]", "result": "Active"},
      {"measurement": "bioavailability", "setting": "[2]", "result": 10.9, "unit": "%"},
      {"measurement": "AUC(0-inf)", "setting": "[3]", "result": 266, "unit": "ng·h/mL"},
      {"measurement": "GI50", "setting": "[4]", "result": 17, "unit": "nM"},
      {"measurement": "inhibition", "setting": "[5]", "result": "Active"},
      {"measurement": "GI50", "setting": "[6]", "result": "< 1", "unit": "nM"},
      {"measurement": "GI50", "setting": "[7]", "result": 7, "unit": "nM"},
      {"measurement": "Activity", "setting": "KU812 cell line [8]", "result": "Active"},
      {"measurement": "GI50", "setting": "[9]", "result": 25, "unit": "nM"},
      {"measurement": "GI50", "setting": "[10]", "result": 33, "unit": "nM"},
      {"measurement": "Activity", "setting": "K562 [11]", "result": "Active"},
      {"measurement": "MRT last", "setting": "[12]", "result": 1.2, "unit": "h"},
      {"measurement": "EC50", "setting": "Bcr/Abl fusion protein [13]", "result": "< 10", "unit": "nM"},
      {"measurement": "AUC(0-t)", "setting": "[14]", "result": 210, "unit": "ng·h/mL"},
      {"measurement": "IC50", "setting": "[15]", "result": 0.2, "unit": "nM"},
      {"measurement": "EC50", "setting": "Bcr/Abl fusion protein [16]", "result": "< 10", "unit": "nM"},
      {"measurement": "Cmax", "setting": "[17]", "result": 48.6, "unit": "ng/mL"},
      {"measurement": "bioavailability", "setting": "[18]", "result": 14.4, "unit": "%"},
      {"measurement": "GI50", "setting": "[19]", "result": 15, "unit": "nM"},
      {"measurement": "Vz", "setting": "[20]", "result": 124.9, "unit": "L/kg"},
      {"measurement": "GI50", "setting": "[21]", "result": 36, "unit": "nM"},
      {"measurement": "GI50", "setting": "[22]", "result": 1050, "unit": "nM"},
      {"measurement": "MRT last", "setting": "[23]", "result": 1.7, "unit": "h"},
      {"measurement": "TGI", "setting": "BaF3", "result": "Dose-dependent effect"},
      {"measurement": "inhibition", "setting": "[24]", "result": "Active"},
      {"measurement": "CLz/F", "setting": "[25]", "result": 103, "unit": "mL/min/kg"},
      {"measurement": "half-life", "setting": "[26]", "result": 5, "unit": "h"},
      {"measurement": "Activity", "setting": "MEG-01", "result": "Active"},
      {"measurement": "Cmax", "setting": "[27]", "result": 525, "unit": "ng/mL"},
      {"measurement": "GI50", "setting": "[28]", "result": 3, "unit": "nM"},
      {"measurement": "inhibition", "setting": "[29]", "result": "Active"},
      {"measurement": "GI50", "setting": "[30]", "result": 18, "unit": "nM"},
      {"measurement": "RatioGI50", "setting": "[31]", "result": 400},
      {"measurement": "AUC(0-t)", "setting": "[32]", "result": 148, "unit": "ng·h/mL"},
      {"measurement": "Activity", "setting": "KU812 cell line [33]", "result": "Active"},
      {"measurement": "inhibition", "setting": "[34]", "result": "Active"},
      {"measurement": "AUC(0-t)", "setting": "[35]", "result": 192, "unit": "ng·h/mL"},
      {"measurement": "GI50", "setting": "[36]", "result": 2, "unit": "nM"}
    ]}
  ]
}
